{
  "source": "paper PMC7700685",
  "about": "(International Journal of Molecular Sciences, 2020)",
  "key": {"[1]": {"tested_on": "U251MG cells", "test": "MTT cell viability assay", "conditions": "72 h", "quoted_text": "(§2) MTT assays were used to test cell toxicity of compounds. […] After incubation with MTT for 4 h at 37 °C, the culture medium was aspirated and 200 µL DMSO was added to each well to dissolve the formazan crystals, then the absorbance was measured at 540 nm using a Victor 3 Microplate reader (PerkinElmer, Waltham, MA, USA)."}, "[2]": {"target": "T1, MTH1 (Homo sapiens, UniProt P36639)", "test": "MTH1 enzymatic inhibition assay (PPiLight inorganic pyrophosphate bioluminescent assay)", "assay_type": "biochemical", "conditions": "substrate dGTP 100 uM, recombinant MTH1 0.5 nM; for IC50: read-out: IC50 inhibiting MTH1 hydrolase activity", "description": "(§1) The enzymatic hydrolysis of dGTP by purified human recombinant MTH1 to form dGMP and pyrophosphate was applied for screening purposes using a PPiLightTM inorganic pyrophosphate bioluminescent assay—according to published procedures. After shaking and color development, the plates were analyzed in a Victor 3 Microplate reader (PerkinElmer, Waltham, MA, USA) for luminescence. The inhibition assays were conducted using a series of dilutions of standard compounds and new MTH1 inhibitors. The IC50 values were determined by fitting a dose-response curve to the data points using nonlinear regression."}, "[3]": {"target": "T1, MTH1", "test": "Competitive binding against [3H]TH287 in live U251MG cells", "parameters": "endogenous in cells; host or cells: U251MG glioblastoma cells", "description": "The final concentration of the radioligand in each assay was 4 nM. […] After the reaction was completed, the cells were washed once with ice-cold PBS and the bound radioactivity was counted and analyzed as described above. Nonspecific binding was determined from cells treated with 10 µM TH086. Raclopride, a well-reported selective antagonist for dopamine D₂ receptors, was also used to validate the assay.\nThe values for Bns and B0 were constrained using experimentally derived values.\nData from competitive radioligand binding studies were transformed to determine the pseudo-Hill coefficient, n’H, defined as:(4) logBs/B0−Bs=n′HlogI−n′HlogIC50\nn’H, which is the negative of the Hill slope, was readily determined from the plot of logBs/B0−Bs versus logI ."}, "[4]": {"test": "in vitro", "conditions": "human", "quoted_text": "as §2"}, "[5]": {"test": "MicroPET imaging of normal mice with [11C]TH287", "assay_type": "in vivo", "description": "The Washington University Animal Studies Committee approved all procedures used for the mouse experiments described in the present study under ACS# 20,170,165 (approved on 9/1/2017). Overall care of the animals was consistent with The Guide for the Care and Use of Laboratory Animals from the National Research Council and the USDA Animal Care Resource Guide. Four male athymic nude mice ([…], 8 weeks old), purchased from Charles River Laboratories (Wilmington, MA, USA), were included for the preliminary microPET imaging evaluation of MTH1 in vivo. […] The imaging sessions were 1 h dynamic scans using the MicroPET® Focus 220 and Inveon scanners (Siemens Medical Solutions USA Molecular Imaging, Knoxville, TN, USA). Acquired list mode data were histogrammed into a 3D set of sinograms and binned to the following time frames: 5 × 60 s, 5 × 2 min, and 9 × 5 min. Sinogram data was then processed using a filter back-projection algorithm with attenuation and scatter corrections. […] The software Acquisition Sinogram Image PROcessing using IDL’s Virtual Machine^TM (ASIPro VM^TM) (Siemens Medical Solutions USA Molecular Imaging, Knoxville, TN, USA) was used to draw ROI and obtain the radioactivity uptake (nCi/c.c.) curve over the time course of the scan, and the uptake data were further normalized by the injected radioactivity dose to get %I.D./cc."}, "[6]": {"conditions": "human; N-dealkylation of the aminomethyl substituent, major metabolite TH586; no reference given; cited from earlier work"}, "[7]": {"tested_on": "beta-tubulin", "conditions": "cited from earlier work"}, "[8]": {"conditions": "mouse; N-dealkylation of the aminomethyl substituent, major metabolite TH586; no reference given; cited from earlier work"}, "[9]": {"target": "T1, MTH1", "test": "Competitive inhibition (kinetics) assay of MTH1 hydrolase", "assay_type": "biochemical", "description": "as §1"}, "[10]": {"target": "T1, MTH1", "conditions": "'it has been reported', no reference given; cited from earlier work"}},
  "note": "“And” between values parts separate entries of the source, which are not always exact repeats. Equal values may be shown once. “Also recorded” adds a separate entry of the source. Read-outs that look alike come from different tables or passages of the source.",
  "data": [
    {"smiles": "C[C@H](Oc1cc(-c2cnn(C3CCNCC3)c2)cnc1N)c1c(Cl)ccc(F)c1Cl", "note": "[(S)-crizotinib]", "values": [
      {"measurement": "cell viability compared with vehicle control", "setting": "[1]; 10 µM", "result": 92.95, "unit": "%"},
      {"measurement": "cell viability compared with vehicle control", "setting": "[1]; 30 µM", "result": 0.14, "unit": "%"}
    ]},
    {"smiles": "CCN1CCC[C@H]1CNC(=O)c1c(O)c(Cl)cc(Cl)c1OC", "note": "[Raclopride]", "values": [
      {"measurement": "IC50 inhibiting MTH1 hydrolase activity", "setting": "[2]", "result": "no inhibition"},
      {"measurement": "IC50", "setting": "[2]", "result": "> 10000", "unit": "nM"},
      {"measurement": "Ki (competitive binding)", "setting": "[3]; U251MG cells, 4 nM [3H]TH287, Cheng-Prusoff", "result": "No binding was detected"},
      {"measurement": "Ki", "setting": "[3]; read-out: Ki (competitive binding)", "result": "> 10000", "unit": "nM"}
    ]},
    {"smiles": "CNc1cc(-c2cccc(Cl)c2Cl)nc(N)n1", "note": "[TH287, 6-(2,3-Dichlorophenyl)-N4-methylpyrimidine-2,4-diamine]", "values": [
      {"measurement": "viability at 72 h, 30 µM", "setting": "[4]", "result": 88.9, "unit": "%"},
      {"measurement": "IC50", "setting": "[2]", "result": 2.2, "unit": "nM"},
      {"measurement": "blood-brain barrier penetration", "setting": "[5]; microPET", "result": "penetrates the blood-brain barrier of mice with a fast clearance"},
      {"measurement": "metabolism in liver microsomes", "setting": "[6]", "result": "rapidly metabolized"},
      {"measurement": "concentration inhibiting in vitro beta-tubulin polymerization", "setting": "[7]", "result": "higher than 30 µM"},
      {"measurement": "metabolism in liver microsomes", "setting": "[8]", "result": "rapidly metabolized"},
      {"measurement": "Ki", "setting": "[3]", "result": "3.04 ± 0.14", "unit": "nM"},
      {"measurement": "pseudo-Hill coefficient n'H", "setting": "[3]; U251MG cells", "result": "0.88 and 0.88 ± 0.06"},
      {"measurement": "Kmapp of MTH1", "setting": "[9]; 2.5 nM TH287 present (Km 305 µM without)", "result": 892, "unit": "µM"},
      {"measurement": "Ki", "setting": "[9]; MTH1 0.5 nM, dGTP 0 to 5000 uM, read-out: Ki from kinetics assays", "result": "~1.3 nM and 1.3 nM"}
    ]},
    {"smiles": "Nc1cc(-c2cccc(Cl)c2Cl)nc(N)n1", "note": "[TH586]", "values": [
      {"measurement": "IC50", "setting": "[10]", "result": 77, "unit": "nM"}
    ]},
    {"smiles": "Nc1nc(NC2CC2)cc(-c2cccc(Cl)c2Cl)n1", "note": "[TH588]", "values": [
      {"measurement": "concentration inhibiting in vitro beta-tubulin polymerization", "setting": "[7]", "result": "higher than 30 µM"}
    ]},
    {"smiles": "[11CH3]Nc1cc(-c2cccc(Cl)c2Cl)nc(N)n1", "note": "[[^11C]TH287]", "values": [
      {"measurement": "uptake and clearance from brain, heart and kidney", "setting": "[5]; ~0.4 mCi via tail vein, 1 h dynamic scan", "result": "gets into the brain with rapid clearance from the brain, kidney, and heart; also recorded: high initial uptake and fast clearance; also recorded: rapid brain uptake and fast clearance"}
    ]}
  ]
}
